Source: patent US20030013637A1, “Novel anti-autoimmune composition by inhibition of GRF action” (priority 2001, published 2003)

System: EAE-induced PLSJLF1/J mice
Test: Effect of GRF antagonist administration on experimental autoimmune encephalomyelitis (EAE) induced by rabbit MBP immunization and pertussis toxin
Type: in vivo
Protocol: In order to investigate the affect of the administration of GRF antagonist on the onset of autoimmune disease, studies were conducted using experimental autoimmune encephalomyelitis (EAE), which is an experimental animal model of human multiple sclerosis.
Wild mice (PLSJLF1/J) (females purchased from The Jackson Laboratory) were used in the experiment. The mice were purchased at five weeks of age, and were reared under artificial lighting from 8:00 am to 8:00 pm every day throughout the experiment. The animals were allowed free access to water and solid food (CE-2; Japan CLEA).
First, these mice (total ten animals) were sensitized by subcutaneous administration in the femoral area of 100 μL of an emulsion in a 1:1 mixture of complete Freund's adjuvant (CFA) (Difco Co.) to 2 mg/mL rabbit myelin basic protein (MBP) (manufactured by Sigma Co.) dissolved in physiological saline (manufactured by Otsuka Pharmaceutical Co. Ltd.). Pertussis toxin (manufactured by List Biological Laboratories) (200 ng) dissolved in physiological saline (manufactured by Otsuka Pharmaceutical Co. Ltd.) was intra-abdominally administered immediately after and two days after sensitization. In this manner, experimental autoimmune encephalomyelitis (EAE) was induced.
Next, GRF antagonist was administered in compliance with the following procedures. The mice (total of ten animals) that had been MBP sensitized and administered pertussis toxin were divided into two groups. One group (five animals) was subcutaneously administered in the dorsal neck region 30 μg of GRF antagonist (MZ-4-71; manufactured by the US company Calbiochem Novabiochem) per mouse once per day from the eighth to 15th day after MBP sensitization (MZ-4-71 administration group). The other group (five animals) was subcutaneously administered in the dorsal neck region an equal amount of physiological saline in the same way as a control once per day from the eighth to 15th day after MBP sensitization (saline administration group). All animals were allowed free access to food and water throughout the entire rearing period including during the aforementioned experimental period.
The body weight of each mouse was measured every day. The EAE symptoms were observed. and EAE symptom scores were recorded based on the following criteria.
0: No symptoms, 1: Paralysis of tail, 2: Mild paralysis of rear legs, 3: Moderate to severe paralysis of rear legs or mild paralysis of front legs, or both, 4: Complete paralysis of rear legs or moderate to severe paralysis of front legs, or both, 5: Paralysis of all four limbs or struggling with death, 6: Death

Q: For “[Ibu^0, D-Arg^2, Phe(4-Cl)^6, Abu^15, Nle^27]hGHRH-(1-28)Agm [MZ-4-71]”, which “beginning of EAE onset” value (PLSJLF1/J mice, 30 μg per mouse s.c. once per day, day 8 to 15 after MBP sensitization, FIG. 2(A)) is on record?
A: Its value is 11 post-sensitization day.

Q: And the beginning of flare-ups (after remission, 30 μg per mouse s.c. once per day, day 8-15)?
A: Its beginning of flare-ups is 20 post-sensitization day.

Q: What about the “mean EAE score” value (beginning post-sensitization day 17, remissions in all the mice, 30 μg per mouse s.c. once per day, day 8-15) of the same substance?
A: Its value is 0.

Q: And the “mean EAE score” value (post-sensitization day 13, 30 μg per mouse s.c. once per day, day 8-15, score scale 0-6)?
A: The value was 0.3.

Q: What about the “peak mean EAE score” value (post-sensitization day 23, peak over subsequent observation period, 30 μg per mouse s.c. once per day, day 8-15) of the same substance?
A: The value was 2.2.

Q: And the EAE onset percentage (post-sensitization day 26, 30 μg per mouse s.c. once per day, day 8-15, FIG. 2(B))?
A: The EAE onset percentage was “not more than 60%”.

Q: And the “EAE scores compared to the saline administration group” value (time course of mean values, FIG. 2(A))?
A: The value was “lower EAE scores”.

Q: What about the “beginning of EAE onset compared to the saline administration group” value (time course of onset percentage, FIG. 2(B)) of the same substance?
A: Its value is “a delay in the beginning of EAE onset”.
